The source of these data is patent US9297017B2, “Methods and compositions for targeted protein degradation” (University of Washington, priority 2010, dated 2016).

In one assay the target is T1, JAZ6F195A/COI1 (Arabidopsis thaliana, UniProt O04197+Q9C9E3, F195A).
T1 construct: Full-length Arabidopsis thaliana COI1 and ASK1 were co-expressed; Full-length JAZ substrate proteins were expressed as 6×His-fusion proteins in Escherichia coli; GST (cleaved yes); 6xHis; made in house; host or cells: Hi5 insect cells (COI1/ASK1); Escherichia coli (JAZ6 F195A)
T1 sequence (O04197 1-592): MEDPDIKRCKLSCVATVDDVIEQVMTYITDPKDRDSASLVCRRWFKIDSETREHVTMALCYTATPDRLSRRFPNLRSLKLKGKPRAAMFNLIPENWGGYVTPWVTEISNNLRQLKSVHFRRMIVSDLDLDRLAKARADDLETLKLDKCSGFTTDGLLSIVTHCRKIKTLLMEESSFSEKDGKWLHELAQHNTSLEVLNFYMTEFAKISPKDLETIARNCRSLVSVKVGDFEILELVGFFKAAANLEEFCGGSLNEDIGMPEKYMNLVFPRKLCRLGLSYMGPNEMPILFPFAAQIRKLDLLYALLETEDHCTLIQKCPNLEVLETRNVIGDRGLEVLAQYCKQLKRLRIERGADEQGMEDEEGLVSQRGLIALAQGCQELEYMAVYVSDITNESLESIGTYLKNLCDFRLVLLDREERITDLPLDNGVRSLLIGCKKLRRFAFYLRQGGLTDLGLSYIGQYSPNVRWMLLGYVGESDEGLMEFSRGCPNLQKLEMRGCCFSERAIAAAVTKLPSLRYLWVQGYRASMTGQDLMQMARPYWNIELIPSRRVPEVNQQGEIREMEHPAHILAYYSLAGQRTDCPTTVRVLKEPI
T1 sequence (Q9C9E3 1-269 F195A): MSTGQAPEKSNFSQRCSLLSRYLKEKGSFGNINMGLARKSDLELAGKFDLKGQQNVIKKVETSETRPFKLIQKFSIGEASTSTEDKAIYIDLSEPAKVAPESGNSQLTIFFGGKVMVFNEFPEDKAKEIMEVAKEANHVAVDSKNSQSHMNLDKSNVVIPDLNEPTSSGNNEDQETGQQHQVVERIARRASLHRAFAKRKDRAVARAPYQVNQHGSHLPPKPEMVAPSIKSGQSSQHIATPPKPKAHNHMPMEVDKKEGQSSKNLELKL
T1 sequence (Q39255 1-160 partner): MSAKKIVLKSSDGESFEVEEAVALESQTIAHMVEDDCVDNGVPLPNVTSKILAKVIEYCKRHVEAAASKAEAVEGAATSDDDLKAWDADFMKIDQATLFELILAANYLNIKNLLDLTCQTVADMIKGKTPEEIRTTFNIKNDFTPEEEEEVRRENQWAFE
As to the kind of experiment: Binding of 3H-coronatine (300 nM) to JAZ6F195A/COI1. Conditions: 300 nM 3H-coronatine. From the text: (^3H)-labeled coronatine was synthesized by Amersham. Full-length Arabidopsis thaliana COI1 and ASK1 were co-expressed as a glutathione S-transferase (GST) fusion protein and an untagged protein, respectively, in Hi5 suspension insect cells. The COI1/ASK1 complex was isolated from the soluble cell lysate by glutathione affinity chromatography. After on-column tag cleavage by tobacco etch virus protease, the complex was further purified by anion exchange and gel filtration chromatography and concentrated by ultrafiltration to 12-18 mg ml^−1. Full-length JAZ substrate proteins were expressed as 6×His-fusion proteins in Escherichia coli and purified on Ni-NTA resin with subsequent dialysis into 20 mM Tris-HCl, pH 8.0, 200 mM NaCl, and 10% glycerol.
Radioligand binding was assayed on purified proteins, with 2 mg COI1/ASK1 complex and JAZ proteins at a 1:3 molar ratio. […] Nonspecific binding was determined in the presence of […] coronatine. Competition binding experiments were conducted with serial dilutions of JA-Ile in the presence of 100 nM ^3H coronatine with nonspecific binding determined in the presence of […] coronatine. Total binding was determined in the presence of vehicle only. Two-point binding experiments were performed in the presence of 100 nM or 300 nM ^3H-coronatine with nonspecific binding determined in the presence of 300 mM coronatine. […]

In another assay the target is T2, COI1/JAZ1 co-receptor (Arabidopsis thaliana, UniProt O04197+Q9LMA8).
T2 construct: Full-length Arabidopsis thaliana COI1 and ASK1 were co-expressed; Full-length JAZ substrate proteins were expressed as 6×His-fusion proteins in Escherichia coli; GST (cleaved yes); 6xHis; made in house; host or cells: Hi5 insect cells (COI1/ASK1); Escherichia coli (JAZ1)
T2 sequence (O04197 1-592): T1 sequence (O04197 1-592)
T2 sequence (Q39255 1-160 partner): T1 sequence (Q39255 1-160 partner)
T2 sequence (Q9LMA8 1-253): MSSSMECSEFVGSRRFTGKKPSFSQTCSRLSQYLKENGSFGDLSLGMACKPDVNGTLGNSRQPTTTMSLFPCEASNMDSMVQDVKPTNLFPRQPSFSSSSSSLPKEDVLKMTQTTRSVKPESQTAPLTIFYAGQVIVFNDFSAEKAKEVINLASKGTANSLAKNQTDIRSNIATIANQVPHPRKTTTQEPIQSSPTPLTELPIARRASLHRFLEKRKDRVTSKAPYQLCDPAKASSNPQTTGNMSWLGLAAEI
Nature of the assay: Ligand-binding based reconstitution assay (inositol phosphate rescue) with dialyzed COI1/ASK1 and JAZ1. The procedure:
Radioligand binding was assayed on purified proteins, with 2 mg COI1/ASK1 complex and JAZ proteins at a 1:3 molar ratio. Reactions were prepared in […] final volume and in a binding buffer containing 20 mM Tris-HCl 200 mM NaCl, and 10% glycerol. Saturation binding experiments were conducted with serial dilutions of 3H-coronatine in binding buffer. Nonspecific binding was determined in the presence of […] coronatine. Competition binding experiments were conducted with serial dilutions of JA-Ile in the presence of 100 nM ^3H coronatine with nonspecific binding determined in the presence of […] coronatine. Total binding was determined in the presence of vehicle only. Two-point binding experiments were performed in the presence of 100 nM or 300 nM ^3H-coronatine with nonspecific binding determined in the presence of […] coronatine. Following incubation with mixing at 4° C., all samples were collected with a cell harvester (Brandel, Gaithersburg, Md.) on polyethyleneimine (Sigma)-treated filters. Samples were incubated in liquid scintillation fluid for >1 hour before counting with a Packard Tri-Carb 2200 CA liquid scintillation analyzer (Packard Instrument Co.). Saturation binding experiments were analyzed by nonlinear regression, competition binding experiments by nonlinear regression with Ki calculation as described previously (Cheng 1973), and concentration-response data by sigmoidal dose-response curve fitting, all using GraphPad Prism version 4.00 for MacOSX.
To assess the functional role of Ins(1,2,4,5,6)P5 in the COI1/JAZ1 co-receptor, a protocol was developed for stripping the co-purified InsP5 from COI1 without denaturing the protein. Briefly, proteins were mixed with 10% glycerol and incubated in 2 M ammonium phosphate, 100 mM Bis-Tris propane, pH 7.0, 200 mM NaCl, and 10% glycerol at 4° C. for >24 hours with a minimum of 3× buffer changes at 100× sample volume. Samples were then transferred to 20 mM Tris-HCl, pH 8.0, 200 mM NaCl, and 10% glycerol at 4° C. for >24 hours with a minimum of three buffer changes at 100× sample volume. Inositol phosphate rescue experiments were conducted according to the radioligand binding assays described above in the presence of 300 nM ^3H-coronatine with nonspecific binding determined in the presence of 300 μM coronatine.
The resulting COI1/ASK1 complex was tested in a ligand-binding based reconstitution assay. […] From this reconstitution result, it was concluded that Ins(1,2,4,5,6)P5 binding is crucial for the jasmonate coreceptor to perceive the hormone with high sensitivity.

Where two headings read alike, the source gives them in different places.

With `CC[C@H]1C=C(C(=O)N[C@@]2(C(=O)O)C[C@@H]2CC)[C@H]2CCC(=O)[C@H]2C1` [coronatine], the “High affinity interaction with COI1/JAZ6 after mutation of the conserved phenylalanine to alanine” value on JAZ6F195A/COI1 was “abolish the high affinity interaction”. Besides, the Kd on COI1/JAZ1 co-receptor (1 μM Ins(1,2,4,5,6)P5, read-out: Kd, saturation binding of 3H-coronatine to dialyzed COI1 in the presence of InsP5) was determined as 0.03 µM; at COI1/JAZ1 co-receptor (1 μM InsP6, read-out: Kd, saturation binding of 3H-coronatine to dialyzed COI1 in the presence of InsP6), 0.037 µM.
